Assay: 28-day repeat-dose toxicity study, toxicokinetics of AMXT 1501 dicaprate
Format: in vivo, beagle dogs
Method: AMXT 1501 PK parameters were calculated for all AMXT 1501 dicaprate-dosed animals for the first dose (Day 1) and last dose (Day 28).

[1] = 8 mg/kg/day PO, DFMO 0, Day 1, M+F combined
[2] = 8 mg/kg/day PO, DFMO 0, Day 28, M+F combined
[3] = 8 mg/kg/day PO, DFMO 50 mg/kg/day, Day 28, M+F combined
[4] = 8 mg/kg/day PO, DFMO 200 mg/kg/day, Day 1, M+F combined
[5] = 16 mg/kg/day PO, DFMO 0, Day 1, M+F combined
[6] = 16 mg/kg/day PO, DFMO 0, Day 28, M+F combined
[7] = 16 mg/kg/day PO, DFMO 50 mg/kg/day, Day 28, M+F combined
[8] = 16 mg/kg/day PO, DFMO 200 mg/kg/day, Day 1, M+F combined
[9] = 32 mg/kg/day PO, DFMO 0, Day 1, M+F combined
[10] = 32 mg/kg/day PO, DFMO 0, Day 28, M+F combined

CCCCCCCCCCCCCCCC(=O)NCCCC[C@@H](N)C(=O)NCCCNCCCCNCCCN [AMXT 1501 dicaprate]
AUC0-24 hr Max. [1]: 2810 ng·h/mL
AUC0-24 hr Min. [1]: 374 ng·h/mL
Cmax Max. [1]: 158 ng/mL
Cmax Min. [1]: 30.8 ng/mL
Tmax Max. [1]: 12.0 h
Tmax Min. [1]: 2.00 h
AUC0-24 hr Max. [2]: 5230 ng·h/mL
AUC0-24 hr Min. [2]: 249 ng·h/mL
AUC0-t Max. [2]: 9470 ng·h/mL
AUC0-t Min. [2]: 308 ng·h/mL
AUC0-∞ Min. [2]: 328 ng·h/mL
Cmax Max. [2]: 360 ng/mL
Cmax Min. [2]: 17.7 ng/mL
Tmax Min. [2]: 0.00 h
t1/2 Max. [2]: 28.8 h
t1/2 Min. [2]: 12.6 h
AUC0-24 hr Max. [3]: 4230 ng·h/mL
AUC0-24 hr Min. [3]: 366 ng·h/mL
AUC0-t Max. [3]: 5010 ng·h/mL
AUC0-t Min. [3]: 1040 ng·h/mL
AUC0-∞ Max. [3]: 5120 ng·h/mL
AUC0-∞ Min. [3]: 1060 ng·h/mL
Cmax Max. [3]: 275 ng/mL
Cmax Min. [3]: 48.0 ng/mL
Tmax Max. [3]: 12.0 h
Tmax Min. [3]: 0.00 h
t1/2 Max. [3]: 24.9 h
t1/2 Min. [3]: 8.85 h
AUC0-24 hr Max. [4]: 2670 ng·h/mL
AUC0-24 hr Min. [4]: 323 ng·h/mL
Cmax Max. [4]: 182 ng/mL
Cmax Min. [4]: 35.2 ng/mL
Tmax Max. [4]: 12.0 h
AUC0-24 hr Max. [5]: 6350 ng·h/mL
AUC0-24 hr Min. [5]: 104 ng·h/mL
Cmax Max. [5]: 408 ng/mL
Cmax Min. [5]: 10.4 ng/mL
Tmax Max. [5]: 12.0 h
Tmax Min. [5]: 2.00 h
AUC0-24 hr Max. [6]: 7800 ng·h/mL
AUC0-24 hr Min. [6]: 1320 ng·h/mL
AUC0-t Max. [6]: 10800 ng·h/mL
AUC0-t Min. [6]: 4870 ng·h/mL
AUC0-∞ Max. [6]: 10800 ng·h/mL
AUC0-∞ Min. [6]: 4910 ng·h/mL
Cmax Max. [6]: 408 ng/mL
Cmax Min. [6]: 109 ng/mL
Tmax Max. [6]: 12.0 h
Tmax Min. [6]: 0.00 h
t1/2 Max. [6]: 35.8 h
t1/2 Min. [6]: 10.1 h
AUC0-24 hr Max. [7]: 10800 ng·h/mL
AUC0-24 hr Min. [7]: 1480 ng·h/mL
AUC0-t Max. [7]: 22300 ng·h/mL
AUC0-t Min. [7]: 3410 ng·h/mL
AUC0-∞ Max. [7]: 22600 ng·h/mL
AUC0-∞ Min. [7]: 3610 ng·h/mL
Cmax Max. [7]: 578 ng/mL
Cmax Min. [7]: 98.4 ng/mL
Tmax Max. [7]: 12.0 h
Tmax Min. [7]: 0.00 h
t1/2 Max. [7]: 69.4 h
t1/2 Min. [7]: 26.4 h
AUC0-24 hr Max. [8]: 4280 ng·h/mL
AUC0-24 hr Min. [8]: 94.4 ng·h/mL
Cmax Max. [8]: 263 ng/mL
Cmax Min. [8]: 7.27 ng/mL
Tmax Max. [8]: 12.0 h
AUC0-24 hr Max. [9]: 6590 ng·h/mL
AUC0-24 hr Min. [9]: 999 ng·h/mL
Cmax Max. [9]: 353 ng/mL
Cmax Min. [9]: 58.2 ng/mL
Tmax Max. [9]: 12.0 h
Tmax Min. [9]: 2.00 h
AUC0-24 hr Max. [10]: 16600 ng·h/mL
AUC0-24 hr Min. [10]: 2830 ng·h/mL
AUC0-t Max. [10]: 41500 ng·h/mL
AUC0-t Min. [10]: 8730 ng·h/mL
AUC0-∞ Max. [10]: 41700 ng·h/mL
AUC0-∞ Min. [10]: 8810 ng·h/mL
Cmax Max. [10]: 1110 ng/mL
Cmax Min. [10]: 190 ng/mL
Tmax Max. [10]: 12.0 h
Tmax Min. [10]: 0.00 h
t1/2 Max. [10]: 61.1 h
t1/2 Min. [10]: 27.3 h
dose-proportionality of plasma levels of AMXT 1501 (8, 16 and 32 mg/kg/day, Day 1 and Day 28, enterically-coated tablets): approximately dose-proportional increases
half-life at 28 days (beagle, dog, plasma, oral, Day 28, all dose groups, read-out: Day 28 individual animal AMXT 1501 t1/2 values): 8.85 to 69.4 h
AUC(0-t) (both sexes, beagle, dog, plasma, po, 8 mg/kg/day, 8 mg/kg/day PO, DFMO 0, Day 1, M+F combined, read-out: AUC0-24 hr Mean): 1330 ng·h/mL

Reference: patent US12364709B2, “Bioavailable poly amines” (AMINEX THERAPEUTICS, INC., priority 2016, dated 2025)
